Data set [1] deals with KB. Kind of data set: Cytotoxicity against human KB cells. The data set is classed as functional. Conditions: read-out: ED50 (the source's name).
In data set [2] the test system is P388. In words: Antitumor activity against mouse P388 cells allografted in mouse at 12.5 mg/kg. The data set is classed as functional.
For data set [3], the system named is P388. In words: Antitumor activity against mouse P388 cells allografted in mouse at 6.25 mg/kg. The data set is classed as functional.
The subject of data set [4] is P388. In words: Antitumor activity against mouse P388 cells allografted in mouse at 3.13 mg/kg. Type of data set: functional.
Data set [5] relates to Mus musculus. In words: Toxicity in mouse P388 cells allografted mouse at 400 mg/kg. Also noted: dose 400 mg/kg. The settings on record: in vivo. Type of data set: organism-based.
Data set [6] deals with Mus musculus. In words: Toxicity in mouse P388 cells allografted mouse at 200 mg/kg. Type of data set: organism-based. Details: dose 200 mg/kg. The settings on record: in vivo.
The test system of data set [7] is Mus musculus. Kind of data set: Toxicity in mouse P388 cells allografted mouse at 100 mg/kg. Type of data set: organism-based. The settings on record: in vivo. Also noted: dose 100 mg/kg.
In data set [8] the test system is Mus musculus. In words: Toxicity in mouse P388 cells allografted mouse at 50 mg/kg. Type of data set: organism-based. Also noted: dose 50 mg/kg. Conditions: in vivo.
In data set [9] the test system is Mus musculus. Kind of data set: Toxicity in mouse P388 cells allografted mouse at 12.5 mg/kg. Also noted: dose 12.5 mg/kg. The data set is classed as organism-based. Conditions: in vivo.
The subject of data set [10] is Mus musculus. In words: Toxicity in mouse P388 cells allografted mouse at 6.25 mg/kg. Type of data set: organism-based. The settings on record: in vivo. Also noted: dose 6.25 mg/kg.
The subject of data set [11] is Mus musculus. Kind of data set: Toxicity in mouse P388 cells allografted mouse at 3.13 mg/kg. Also noted: dose 3.13 mg/kg. Conditions: in vivo. The data set is classed as organism-based.
In data set [12] the test system is P388. Kind of data set: Antitumor activity against mouse P388 cells allografted in mouse at 25 mg/kg. Type of data set: functional.
Data set [13] relates to Mus musculus. Kind of data set: Toxicity in mouse P388 cells allografted mouse at 25 mg/kg. Type of data set: organism-based. Also noted: dose 25 mg/kg. The settings on record: in vivo.
The subject of data set [14] is P388. Kind of data set: Antitumor activity against mouse P388 cells allografted in mouse at 200 mg/kg. The data set is classed as functional.
The subject of data set [15] is P388. In words: Antitumor activity against mouse P388 cells allografted in mouse at 400 mg/kg. Type of data set: functional.
For data set [16], the system named is P388. In words: Antitumor activity against mouse P388 cells allografted in mouse at 100 mg/kg. The data set is classed as functional.
Data set [17] concerns P388. In words: Antitumor activity against mouse P388 cells allografted in mouse at 50 mg/kg. Type of data set: functional.

In brackets after ≈: the same amount, converted by molar mass.

`COc1cc2c(cc1OC)[C@@H](C)[C@H]1c3cc4c(cc3CCN1C2)OCO4` (relative stereo): in data set [1], the EC50 turned out to be 0.47 µg/mL (≈ 1.33 µM).

`COc1cc2c(cc1OC)-c1c(C)c3ccc(OC)c(OC)c3c[n+]1CC2.[Cl-]`: the EC50 in [1] came to 4.76 µg/mL. Also, the T/C in [2] stood at 107; in [3], 102; in data set [4], 105. For the same molecule, the Activity result was “Toxic” in data set [5]; “Toxic” in data set [6]; “Toxic” in data set [7]; “Toxic” in [8]; “Non-toxic” in data set [9]; “Non-toxic” in [10]. Also, the Activity entry in data set [11] is “Non-toxic”.

Take `COc1cc2c[n+]3c(c(C)c2cc1OC)-c1cc2c(cc1CC3)OCO2.[I-]`: the EC50 in [1] was 2.98 µg/mL. Further, the T/C is given as 116 in [12], 113 in data set [2] and 106 in data set [3]. Also, the Activity entry is “Toxic” in data set [5]; “Toxic” in data set [6]; “Toxic” in data set [7]; “Non-toxic” in data set [13]; “Non-toxic” in data set [9]; “Non-toxic” in data set [10].

With `COc1cc2c(cc1OC)[C@@H](CO)[C@H]1c3cc4c(cc3CCN1C2)OCO4` (relative stereo), the T/C in data set [14] worked out at 105; in [15] it was 129; in [16], 98; in data set [17], 115. Also, the EC50 in data set [1] was 2.65 µg/mL (≈ 7.17 µM). For the same molecule, the Activity result in data set [5], in data set [6], in data set [7] and in data set [8] was “Non-toxic” each time.

On to `COc1cc2c(cc1OC)[C@H](CO)[C@H]1c3cc4c(cc3CCN1C2)OCO4` (relative stereo), for which the EC50 in [1] was above 100 µg/mL.

For the molecule `COc1cc2c(cc1OC)[C@H](C)[C@H]1c3cc4c(cc3CCN1C2)OCO4` (relative stereo), the EC50 in data set [1] was above 100 µg/mL.

The values above are taken from ChEMBL document CHEMBL3227932, “Conformations, DNA binding parameters, and antileukemic activity of certain cytotoxic protoberberine alkaloids” (J Med Chem, 1979).
